Reference: article PMC10080691, “Enzyme-Responsive Double-Locked Photodynamic Molecular Beacon for Targeted Photodynamic Anticancer Therapy” (Journal of the American Chemical Society, 2023)

Experiments:
[1] = tested on: A549 tumor-bearing nude mice; test: In vivo PDT; set-up: species or system Balb/c nude mice; details: for H&E staining of major organs, Day 14 / H&E staining of tumor, Day 14 / change in body weight over 14 days: intratumoral 20 nmol + laser 680 nm, 180 J cm-2; for change in body weight over 14 days / tumor size over 14 days: n = 4; for tumor size over 14 days: intratumoral 20 nmol, laser 680 nm, 0.3 W cm-2, 10 min (180 J cm-2) at 6 h post-injection
Protocol: To further examine the in vivo PDT efficacy of 1, A549 tumor-bearing nude mice were first intratumorally injected with 1 or the non-cleavable control 14 (20 nmol) in 20 μL of distilled water containing 7.5% dimethyl sulfoxide (DMSO) and 0.5% Tween 80 (v/v). After 6 h, when the difference in tumoral fluorescence intensity was the largest between the two conjugates (Figure 7b), the tumor was irradiated with a diode laser at 680 nm (0.3 W cm^–2) for 10 min. As another negative control, another group of mice were injected with PBS only without the laser treatment. The tumor size of all mice was monitored continuously for 14 days after the different treatments.
The body weight of the mice was also monitored during the course of these treatments (Figure 7e). […] In addition, the PDT effect on the tumor and major organs was further investigated by hematoxylin and eosin (H&E) staining.
A549 tumor-bearing nude mice were prepared as described above. The length and width of the tumor were measured using a micrometer digital caliper (SCITOP Systems). The tumor volume (mm3) was calculated using the formula: tumor volume = (length × width2)/2. Once the tumors had grown to a size of 80 –100 mm3, 1 or 14 (20 nmol) dissolved in 20 μL of distilled water containing 7.5% DMSO and 0.5% Tween 80 (v/v) was injected to the tumor -bearing mice through intratu moral injection. At 6 h post-injection, the tumor was illuminated with a diode […]
The tumor size o f the nude mice was monitored periodically for the next 14 days. The tumor volumes were also compared with a PBS control group of mice without the light treatment.
Four mice were used for each group. On Day 14 after the PDT treatment, the mice were sacrificed, and the tumor and major organs were harvested. The tissues were fixed with 4% […]
and embedded in paraffin. […]

MMP-2 = target: T1, MMP-2 (Homo sapiens, UniProt P08253); test: MMP-2-responsive fluorescence activation and cleavage (LC-MS); format: biochemical; details: 1 μM; for on/off ratio (fluorescence intensity at 25 h / initial intensity): MMP-2 only (2 μg mL-1), PBS pH 7.4, 0.1% Tween 80, 37 °C
T1 sequence (P08253 110-660): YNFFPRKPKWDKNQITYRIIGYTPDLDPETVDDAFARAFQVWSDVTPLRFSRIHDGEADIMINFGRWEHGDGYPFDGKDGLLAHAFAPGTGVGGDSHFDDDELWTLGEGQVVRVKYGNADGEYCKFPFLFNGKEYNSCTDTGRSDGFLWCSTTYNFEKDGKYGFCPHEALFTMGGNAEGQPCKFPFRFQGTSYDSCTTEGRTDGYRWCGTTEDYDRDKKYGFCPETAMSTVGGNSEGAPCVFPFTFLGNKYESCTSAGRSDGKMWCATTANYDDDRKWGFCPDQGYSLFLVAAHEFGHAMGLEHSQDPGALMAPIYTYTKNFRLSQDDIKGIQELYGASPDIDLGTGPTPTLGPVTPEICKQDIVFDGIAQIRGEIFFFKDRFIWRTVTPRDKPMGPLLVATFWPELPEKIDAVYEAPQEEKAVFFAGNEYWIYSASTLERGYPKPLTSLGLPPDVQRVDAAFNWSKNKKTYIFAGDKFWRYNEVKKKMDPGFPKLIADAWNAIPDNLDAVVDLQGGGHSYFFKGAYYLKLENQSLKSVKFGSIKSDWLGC
Protocol: To examine the response of PMB 1 toward MMP-2 and cathepsin B, its absorption and fluorescence spectra were monitored in the presence of these stimuli at 37 °C over a period of 25 h, using the non-cleavable analogue 14 as the negative control. For studying the MMP-2-responsive effect, MMP-2 (2 μg mL^–1) in PBS at pH 7.4 was used to mimic the high serum levels of this enzyme in patients with cancer.[68] The effect of cathepsin B (using a concentration of 1 unit mL^–1) was studied in the working buffer mentioned above at pH 5.0 to mimic the lysosomal environment.[69] […] Similar results were obtained for the study using cathepsin B in the buffer (Figure S8e–h). […] The more flexible ring-opening structure, however, might slightly increase the separation of the two moieties, leading to a lower FRET efficiency,[70] which could explain the small increase in fluorescence intensity. For comparison, the effect of these enzymes was also studied for 14. As expected, both the absorption and fluorescence spectra were not changed toward these two enzymes (Figure S9).
The fluorescence recovery was then determined for 1 under the aforementioned conditions, assuming that the fluorescence intensity of 8 at the same concentration in the same medium was the maximum fluorescence intensity that could be recovered. […] In addition, we also determined the corresponding on/off ratios by dividing the fluorescence intensity at 25 h by the initial fluorescence intensity under each of these conditions. […]
To further confirm that the restoration of fluorescence emission and singlet oxygen generation of PMB 1 was due to the cleavage by the enzymes, LC–MS was used to analyze the reaction mixtures (Figure 4). […] Similarly, for the mixture obtained after treating 1 (1 μM) with cathepsin B (1 unit mL^–1) in the working buffer at pH 5.0 for 6 h, a new signal with virtually the same retention time was detected in the chromatogram (Figure 4a–c). […]
All of the solutions were stirred continuously at 37 °C. The ir electronic absorption and fluorescence spectra were monitored over a period of 25 h. […]

SMILES | H&E staining of major organs, Day 14 [1] | H&E staining of tumor, Day 14 [1] | change in body weight over 14 days [1] | tumor size over 14 days [1] | LC-MS signal of intact compound after enzyme treatment (MMP-2; MMP-2 (2 μg mL-1) in PBS, 6 h, new signal at 14.7 min (15)) | on/off ratio (fluorescence intensity at 25 h / initial intensity) (MMP-2)
CCN(CC)c1ccc2nc3ccc(/N=N/c4ccc(N(C)CCCNC(=O)OC[C@@H]5[C@@H]6CCc7nnn(CC(=O)NCCCC[C@@H]8NC(=O)CNC(=O)[C@H](CCCCN)NC(=O)[C@H](CCCNC(=N)N)NC(=O)[C@H](C(C)C)NC(=O)CNC(=O)[C@H](CC(C)C)NC(=O)[C@@H]9CCCN9C(=O)[C@H](CCCCN)NC(=O)[C@@H](N)CSCc9cc(COc%10ccc(C%11=C%12C(C)=C(I)C(/C=C/c%13ccc(OCCOCCOCCOC)cc%13)=[N+]%12[B-](F)(F)n%12c(/C=C/c%13ccc(OCCOCCOCCOC)cc%13)c(I)c(C)c%12%11)cc%10)cc(c9)CSC[C@@H](C(N)=O)NC(=O)[C@H](CCCCN)NC(=O)[C@H](CCCCN)NC(=O)CNC(=O)[C@H](CC(C)C)NC(=O)[C@H](Cc9ccccc9)NC(=O)CNC(=O)[C@H](CCCCN)NC(=O)CNC8=O)c7CC[C@@H]65)cc4)cc3[n+](-c3ccccc3)c2c1 [compound 1] | no apparent damage | significant cellular damage and necrosis | negligible change | greatly reduced | disappeared | ca. 2.7
CCN(CC)c1ccc2nc3ccc(/N=N/c4ccc(N(C)CCCNC(=O)OC[C@@H]5[C@@H]6CCc7nnn(CC(=O)NCCCC[C@@H]8NC(=O)CNC(=O)[C@H](CCCCN)NC(=O)CNC(=O)CNC(=O)CNC(=O)CNC(=O)CNC(=O)[C@H](CCCCN)NC(=O)[C@@H](N)CSCc9cc(COc%10ccc(C%11=C%12C(C)=C(I)C(/C=C/c%13ccc(OCCOCCOCCOC)cc%13)=[N+]%12[B-](F)(F)n%12c(/C=C/c%13ccc(OCCOCCOCCOC)cc%13)c(I)c(C)c%12%11)cc%10)cc(c9)CSC[C@@H](C(N)=O)NC(=O)[C@H](CCCCN)NC(=O)[C@H](CCCCN)NC(=O)CNC(=O)CNC(=O)CNC(=O)CNC(=O)[C@H](CCCCN)NC(=O)CNC8=O)c7CC[C@@H]65)cc4)cc3[n+](-c3ccccc3)c2c1 [compound 14] | no apparent damage | no apparent damage | negligible change | grew continuously | – | below 1.5
